Measured values reported in PubChem BioAssay (NCI).
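Test compounds were applied to cells in 96-well plates for 48 hours at 5 doses. Abbreviation: GI50, concentration required for 50% inhibition of growth. TGI denotes the concentration required for complete inhibition of growth.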

How the values were obtained:
Assay in all cases: NCI anticancer screen, dose series, 48 h
CCRF-CEM leukemia = test system: CCRF-CEM leukemia
HCC-2998 colon = test system: HCC-2998 colon
MDA-MB-231 breast = test system: MDA-MB-231 breast
MDA-N = test system: MDA-N
NCI-H226 lung = test system: NCI-H226 lung
NCI-H460 lung = test system: NCI-H460 lung
NCI-H522 lung = test system: NCI-H522 lung
SF-295 CNS = test system: SF-295 CNS
ACHN renal = test system: ACHN renal

| Structure (SMILES) | TGI (CCRF-CEM leukemia) | TGI (HCC-2998 colon) | TGI (MDA-MB-231 breast) | TGI (MDA-N) | TGI (NCI-H226 lung) | TGI (NCI-H460 lung) | TGI (NCI-H522 lung) | TGI (SF-295 CNS) | TGI (ACHN renal) | GI50 (ACHN renal) | GI50 (HCC-2998 colon) | GI50 (MDA-MB-231 breast) | GI50 (NCI-H226 lung) | GI50 (NCI-H460 lung) | GI50 (NCI-H522 lung) | GI50 (SF-295 CNS) | GI50 (CCRF-CEM leukemia) |
| --- | --- | --- | --- | --- | --- | --- | --- | --- | --- | --- | --- | --- | --- | --- | --- | --- | --- |
| O=C1C[C@H](c2ccccc2)C2(C(=O)c3ccccc3C2=O)[C@H](c2ccccc2)C1 | > 100 µM | > 100 µM | 80.2 µM | > 100 µM | > 100 µM | > 100 µM | > 100 µM | > 100 µM |  |  |  |  |  |  |  |  |  |
| Cc1c(F)c(N)c2c(=O)cc(-c3ccc(NC(=O)C(N)CCCN=C(N)N)c(F)c3)oc2c1F (configuration not stated) | > 100 µM | > 100 µM | > 59.6 µM | > 100 µM | 0.758 µM | > 64.9 µM | 97.7 µM | > 56 µM | 48.5 µM |  |  |  |  |  |  |  |  |
| O=C(NN1C(=O)C=CC1=O)c1ccccc1Nc1ccccc1C(=O)NN1C(=O)C=CC1=O | > 100 µM | > 100 µM | > 100 µM | > 100 µM | > 100 µM | > 100 µM | > 100 µM | > 100 µM | > 100 µM |  |  |  |  |  |  |  |  |
| Cc1cccc2c1C/C(=C\c1cccc(C)c1C(=O)O)C2=O | > 100 µM | > 100 µM |  |  | > 100 µM | > 100 µM | > 100 µM | > 100 µM | > 100 µM |  |  |  |  |  |  |  |  |
| Cc1n(CC(=O)c2ccccc2)nc2sc(N)n[n+]12 | > 100 µM | > 100 µM |  | > 100 µM | > 100 µM | > 100 µM | > 100 µM | > 100 µM | > 100 µM |  |  |  |  |  |  |  |  |
| O=C(C#Cc1cn(C2CC(O)C(CO)O2)c(=O)[nH]c1=O)c1ccccc1 (configuration not stated) |  | > 100 µM | > 100 µM | > 100 µM | > 100 µM | > 100 µM | 17.7 µM | > 100 µM | > 100 µM |  |  |  |  |  |  |  |  |
| COc1ccc(C2c3cc4c(cc3OC(N3CCCCC3)C2C)OCO4)cc1 (configuration not stated) | > 100 µM |  |  | > 100 µM |  | > 100 µM | > 100 µM | > 100 µM | > 100 µM |  |  |  |  |  |  |  |  |
| O=C(/C=C/c1ccccc1O)/C=C/c1ccccc1O |  |  | 5.29 µM | 3.93 µM |  | 3.08 µM |  | 3.89 µM | 3.35 µM |  |  |  |  |  |  |  |  |
| CC(=O)OCC1OC(c2nnc(C)o2)=CC(OC(C)=O)C1OC(C)=O (configuration not stated) | > 100 µM |  | > 100 µM | > 100 µM | > 100 µM | > 100 µM | > 100 µM | > 100 µM | > 100 µM |  |  |  |  |  |  |  |  |
| Cc1ccc2nc(Cl)c(/C=N/N3C(=O)/C(=C/c4ccc(N(C)C)cc4)N=C3c3ccccc3)cc2c1 | > 100 µM | > 100 µM | > 100 µM | 92.6 µM |  | > 100 µM |  | > 100 µM | > 100 µM |  |  |  |  |  |  |  |  |
| CN1CC2CC(C1)c1cccc(=O)n1C2 (configuration not stated) |  | > 100 µM | > 100 µM | > 100 µM |  | > 100 µM | > 100 µM | > 100 µM | > 100 µM |  |  |  |  |  |  |  |  |
| O=C(c1ccccc1)N1C(=S)N(c2ccc([N+](=O)[O-])cc2)C(=Nc2ccccc2)C1=Nc1ccccc1 |  | > 100 µM | > 100 µM | > 100 µM | > 100 µM | > 100 µM | > 100 µM | > 100 µM | > 100 µM |  |  |  |  |  |  |  |  |
| O=C1/C(=C/c2ccco2)NC(=S)N1CN1CCOCC1 | > 100 µM |  | > 100 µM | > 100 µM | > 100 µM |  |  | > 100 µM | > 100 µM |  |  |  |  |  |  |  |  |
| O=C1O[C@]2(c3ccccc3)C(c3ccccc3)=C[C@]2(C(=O)c2ccccc2)C1=O |  | 39.2 µM | 99.1 µM | > 100 µM | 98.6 µM | 71.6 µM | 48.5 µM | > 100 µM | > 100 µM |  |  |  |  |  |  |  |  |
| Cc1nnc2sc(N/N=C/c3ccccc3)nn12 | > 100 µM |  | > 100 µM | > 100 µM | > 100 µM | > 100 µM | > 100 µM | > 100 µM | > 100 µM |  |  |  |  |  |  |  |  |
| CC1(C)[C@@H]2C[C@H]1C(Cc1cccc(C[C@H]3c4cc(-c5ccccn5)ncc4[C@H]4C[C@@H]3C4(C)C)c1)c1cc(-c3ccccn3)ncc12 (some centres not stated) |  | > 100 µM | > 100 µM | > 100 µM |  | 12 µM | > 56.7 µM | > 54.3 µM | > 100 µM | 605 nM |  |  |  |  |  |  |  |
| COC1/C=C/C(C)C(C(C)C(OC)C(C)CCC(=O)C(C)C(C/C=C/N(C)C=O)OC)OC(=O)/C=C/C=C(\C)CC(OC)C(OC)C2=CC(=O)O[C@@H](C(C)C(OC)CC(OC)/C=C/C(C)C(O)C1)[C@H]2O (some centres not stated) |  | 0.359 µM | 0.247 µM |  | 0.244 µM | 0.553 µM | 0.286 µM | 0.273 µM | 0.594 µM |  |  |  |  |  |  |  |  |
| N#Cc1c(N2CCN(c3ccc([N+](=O)[O-])cc3)CC2)[n+](=O)c2ccc(Cl)cc2n1[O-] | 4.2 µM | 4.4 µM |  | > 26.1 µM | 13.8 µM | 3.7 µM | 2.36 µM | > 28.3 µM | 2.24 µM |  |  |  |  |  |  |  |  |
| C/C=C\C(CC(=O)NCCC1CN(C(=O)c2ccccc2)c2ccccc21)CC(=O)OC (configuration not stated) |  | > 100 µM | > 100 µM | > 100 µM |  | > 100 µM | > 100 µM | > 100 µM | > 100 µM |  |  |  |  |  |  |  |  |
| CCOC(=O)C(NCc1cccc(C(F)(F)F)c1)(NC(=O)c1ccccc1)C(F)(F)F (configuration not stated) | > 100 µM | > 100 µM | 29.9 µM | > 100 µM | > 100 µM |  | 50.4 µM | > 100 µM | 79.5 µM |  |  |  |  |  |  |  |  |
| COc1cc(C2S/C(=C/c3ccccc3)C(=O)N2c2cccc([N+](=O)[O-])c2)cc(OC)c1OC (configuration not stated) |  | > 100 µM | > 100 µM | 55.7 µM | > 100 µM |  | > 100 µM | > 100 µM | > 100 µM |  |  |  |  |  |  |  |  |
| O=C(Nc1cccc(-n2ccc3c(NC(=O)c4ccccc4)nccc32)c1)c1cc(N2CCOCC2)cc(C(F)(F)F)c1 |  | > 100 µM | 0.651 µM |  |  | > 36.9 µM |  | 2.16 µM |  | 116 nM | 462 nM | 245 nM | 360 nM | 37.4 nM | 26.9 nM | 39 nM |  |
| C#CCOC(=O)C(N)CCCN=C(N)N (configuration not stated) | > 100 µM | > 100 µM | > 100 µM | > 100 µM | > 100 µM | > 100 µM | > 100 µM |  | > 100 µM |  |  |  |  |  |  |  |  |
| Nc1ccc(-n2c(=O)oc3ccc(Cl)cc3c2=O)c(Cl)c1 | 1.56 µM | 2.65 µM | 1.68 µM |  | 0.787 µM | 3.74 µM | 0.588 µM | 2.8 µM | 4.41 µM | 169 nM | 377 nM | 111 nM | 154 nM | 109 nM | 74.1 nM | 1070 nM | 139 nM |
